# Assay results taken from patent US5821219A (priority 1995, dated 1998).
# Legend:
# [1] = target: T1, novel mammalian opioid receptor (LC132, MSOR, OFQR) (Rattus norvegicus, UniProt P35370); assay: biochemical; format: binding
# T1 construct: The entire coding region of the receptor cDNA insert was subcloned into the RcRSV vector; expressed in transfected cells
# [2] = test system: mice; assay: Reversal of morphine analgesia, 49° C. tail withdrawal latency; format: in vivo, mouse; conditions: morphine sulfate 5 mg/kg sc
# [3] = test system: mice; assay: Morphine hypothermia and Straub tail in DBA/2J mice
# [4] = test system: mice; set-up: dose or concentration left out as unconfirmed
# [5] = test system: mice; assay: Acetic acid abdominal constriction (writhing) test; format: in vivo, mouse; conditions: NAL 1 mg/kg and 10 mg/kg sc
# Procedure: The AC assay was a modification of the technique originally described by Koster et al. Mice (N=9-15 per group) were acclimated to individual cylindrical Plexiglass observation chambers for >30 minutes. […] A separate group of Sal-treated mice received no icv injection (None). Between 5 and 10 minutes later, all mice were given an intraperitoneal (ip) injection of 0.9% acetic acid and placed back in their observation chambers. For the next 30 minutes, the number of abdominal constrictions (lengthwise stretches of the torso with a concomitant concave arching of the back) were counted and recorded. Four mice in separate chambers were observed simultaneously by a single experimenter blind to drug condition.
# T1 sequence (P35370 whole entry): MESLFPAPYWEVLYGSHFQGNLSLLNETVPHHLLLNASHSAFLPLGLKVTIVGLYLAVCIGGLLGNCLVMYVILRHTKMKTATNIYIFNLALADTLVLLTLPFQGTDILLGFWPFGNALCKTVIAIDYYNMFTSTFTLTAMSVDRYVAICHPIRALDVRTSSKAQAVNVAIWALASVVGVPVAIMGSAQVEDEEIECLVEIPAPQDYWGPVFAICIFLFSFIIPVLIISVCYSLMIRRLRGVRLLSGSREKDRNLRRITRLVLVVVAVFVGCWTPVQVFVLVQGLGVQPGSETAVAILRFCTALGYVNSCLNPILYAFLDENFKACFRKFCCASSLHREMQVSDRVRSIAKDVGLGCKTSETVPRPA
compound,measurement,setting,value
"C[C@@H](NC(=O)[C@@H](N)Cc1ccc(O)cc1)C(=O)NCC(=O)N(C)[C@@H](Cc1ccccc1)C(=O)NCCO [DAMGO, Tyr-DAla-Gly-Met-Phe-Gly-ol]",specific binding of the radioactively-labeled ligand,[1],no specific binding
"CC1(C)SSC(C)(C)[C@@H](NC(=O)[C@@H](N)Cc2ccc(O)cc2)C(=O)NCC(=O)N[C@@H](Cc2ccccc2)C(=O)N[C@H]1C(=O)O [DPDPE, c[D-penicillamine^2, D-penicillamine^5]enkephalin]",specific binding of the radioactively-labeled ligand,[1],no specific binding
CCC12CCN(CC3(O)CC3)C(Cc3ccc(O)cc31)C2(C)C (stereo not shown) [bremacozine],specific binding of the radioactively-labeled ligand,[1],no specific binding
CN1CC[C@]23c4c5ccc(O)c4O[C@H]2[C@@H](O)CC[C@H]3[C@H]1C5 [dihydromorphine],specific binding of the radioactively-labeled ligand,[1],no specific binding
CC[C@]12CCN(CC3CC3)[C@H](C(=O)c3ccc(O)cc31)[C@@H]2C [ethylketocyclazocine],specific binding of the radioactively-labeled ligand,[1],no specific binding
CCC(=O)C(CC(C)N(C)C)(c1ccccc1)c1ccccc1 (stereo not shown) [methadone],Bmax,[1],400-450 fentomoles/μg protein
same,Kd,[1],~0.1 nM
same,specific binding of the radioactively-labeled ligand,[1],specific binding was found
CN1CC[C@]23c4c5ccc(O)c4O[C@H]2[C@@H](O)C=C[C@H]3[C@H]1C5 [morphine],duration of analgesia,[2],about 2 hours
same,time of peak analgesia,[2]; post-injection,30 min
same,decrease in body temperature,"[3]; MOR 20 mg/kg i.p., DBA/2J mice",6 °C
same,Straub tail,[3]; morphine 20 mg/kg,produced Straub tail
C=CCN1CC[C@]23c4c5ccc(O)c4O[C@H]2C(=O)CC[C@@]3(O)[C@H]1C5 [naloxone],hyperalgesia in TW test,[4],In no case did any mouse treated with OFQ or naloxone exhibit hyperalgesia
same,stress-induced analgesia: post-injection increase in TW latency,"[4]; 46° C. water, p<0.05",attenuated the 4 s post-injection increase in TW latency
same,decreased number of abdominal constrictions due to SIA,[5],reversed
β-endorphin,specific binding of the radioactively-labeled ligand,[1],no specific binding
